Entries after “also recorded” stand apart in the source; their conditions may differ.
Key:
[1] = test system: stem cell populations in bone marrow (cd34+, cd45+, Sca-1+ cells); experiment: FACS of cells expressing stem cell markers CD34, CD45, Sca-1 in bone marrow samples; format: in vivo, C57BL6/J mice
Experimental: (§1) Mice received either a placebo (PBS) or oridonin (3.0 mg/kg) by intraperitoneal injection.

[2] = test system: stem cell populations in blood (cd34+, cd45+, Sca-1+ cells); experiment: FACS of cells expressing stem cell markers CD34, CD45, Sca-1 in blood samples; format: in vivo, C57BL6/J mice
Experimental: Mice received either a placebo or triptolide (400 μg/kg) by intraperitoneal injection.
Celastrol analogs administered included dihydrocelastrol, dihydrocelastrol diacetate, and pristimerol (dihydropristimerin). Mice received either a placebo or a celastrol analog (3.0 mg/kg) by intraperitoneal injection.
as §1

[3] = test system: cytokine production in mouse blood; experiment: Cytokine/chemokine levels in blood serum (Millipore 21-Plex, Luminex); format: in vivo, C57BL6/J mice
Experimental: Mice received either a placebo, celastrol (3.0 mg/kg), or 17-AAG (10 mg/kg) by intraperitoneal injection. Blood samples were taken from all groups of mice at 0, 1, 3, 6, 24, 48, and 72 hours after administration of the placebo, celastrol, or 17-AAG. The blood samples were analyzed for cytokine production, including the production of granulocyte-macrophage colony-stimulating factor (GM-CSF), interferon-gamma (IFN-γ), interleukin-10 (IL-10), interleukin-12 subunit beta (IL-12p40), interleukin-12 heterodimer (IL-12p70), interleukin-12 homodimer (IL-12p80), vascular endothelial growth factor (VEGF), tumor necrosis factor-alpha (TNF-α), keratinocyte derived chemokine (KC), RANTES (Regulated upon Activation, Normal T-cell Expressed, and Secreted; CCL5), monocyte chemotactic protein-1 (MCP 1), macrophage inflammatory protein (MIP1β; CCL4), interleukin-4 (IL-4), interleukin-3 (IL-3), interleukin-2 (IL-2), interleukin-1 beta (IL-1β), interleukin-1 alpha (IL-1α), interleukin-9 (IL-9), interleukin-13 (IL-13), interleukin-17 (IL-17), interleukin-6 (IL-6), and interleukin-5 (IL-5). Blood serum was analyzed using a commercially available kit (e.g., Mouse cytokine/chemokine panel: 21-Plex; Millipore). Blood serum (50 μl) was assayed in duplicate using a commercially available cytokine/chemokine detection kit from Millipore following the protocol given with the product information. The final measurement was performed using a commercially available detector (e.g., computer-operated Luminex 100 IS system) and the results were expressed as pg/ml blood serum sample. Levels of cytokines in blood were quantitated as a concentration of the total volume of the sample.

[4] = test system: stem cell populations in blood (cd34+, cd45+, Sca-1+ cells); experiment: FACS of cells expressing stem cell markers CD34, CD45, Sca-1 in blood samples; format: in vivo, C57BL6/J mice; settings: valproic acid 200 mg/kg i.p.; 72 hours post treatment
mice = settings: mouse, in vivo
Experimental: Valproic acid was administered to C57BL6/J mice to determine the effect of valproic acid on stem cell populations in bone marrow and in blood. Mice received either a placebo or valproic acid (200 mg/kg) by intraperitoneal injection. […] Bone marrow samples were taken from both groups of mice at 24 hours after administration of the placebo or valproic acid. Blood samples were taken from both groups of mice at 72 hours after administration of the placebo or valproic acid. The bone marrow samples and blood samples were analyzed by FACS for cells expressing stem cell markers. To observe the effect of treatment with valproic acid, cells expressing the stem cell markers CD34, CD45, and Sca-1 in the bone marrow and blood samples, were quantitated as a percentage of the total populations in their respective samples (i.e., in the bone marrow sample and in the blood sample, respectively).

[5] = celastrol analog 3.0 mg/kg i.p., 24 hours post treatment
[6] = celastrol analog 3.0 mg/kg i.p., 24 hours post treatment (so in the source)
[7] = i.p. celastrol 3.0 mg/kg or 17-AAG 10 mg/kg, 72 hour time course
[8] = i.p. celastrol 3.0 mg/kg or 17-AAG 10 mg/kg, sampled 0-72 h
[9] = i.p. celastrol 3.0 mg/kg or 17-AAG 10 mg/kg, sampled 0-72 h, vs placebo control
[10] = oridonin 3.0 mg/kg i.p., 24 hours post treatment
[11] = oridonin 3.0 mg/kg i.p., 48 hours post treatment
[12] = valproic acid 200 mg/kg i.p., 24 hours post treatment
[13] = valproic acid 200 mg/kg i.p., 72 hours post treatment
[14] = triptolide 400 μg/kg i.p., 24 hours post treatment
[15] = triptolide 400 μg/kg i.p., 48 hours post treatment
[16] = triptolide 400 μg/kg i.p., 72 hours post treatment

COC(=O)[C@]1(C)CC[C@]2(C)CC[C@]3(C)C4=CCc5c(cc(O)c(O)c5C)[C@]4(C)CC[C@@]3(C)[C@@H]2C1 [pristimerol]
Sca-1+ cells, percent of the population of bone marrow cells [1, 5]: about 0.28%
cd34+ cells, percent of the population of bone marrow cells [1, 5]: about 0.28%
cd45+ cells, percent of the population of bone marrow cells [1, 5]: about 0.16%
fold increase of percentage of Sca-1+ cells in bone marrow over control [1, 5]: 4-5 fold
fold increase of percentage of cd34+ cells in bone marrow over control [1, 5]: greater than 4 fold
fold increase of percentage of cd45+ cells in bone marrow over control [1, 5]: greater than 5 fold
Sca-1+ cells, percent of the population of blood cells [2, 6]: about 0.25%
cd34+ cells, percent of the population of blood cells [2, 6]: about 0.4%
cd45+ cells, percent of the population of blood cells [2, 6]: about 0.06%
fold increase of percentage of Sca-1+ cells in blood over control [2, 6]: ~6 fold
fold increase of percentage of cd34+ cells in blood over control [2, 6]: ~3 fold
fold increase of percentage of cd45+ cells in blood over control [2, 6]: ~3 fold

dihydrocelastrol diacetate
Sca-1+ cells, percent of the population of bone marrow cells [1, 5]: about 0.17%
cd34+ cells, percent of the population of bone marrow cells [1, 5]: 0.15%
change of percentage of cd45+ cells in bone marrow compared to untreated control [1, 5]: decrease
fold increase of percentage of Sca-1+ cells in bone marrow over control [1, 5]: ~3 fold
fold increase of percentage of cd34+ cells in bone marrow over control [1, 5]: ~3 fold
Sca-1+ cells, percent of the population of blood cells [2, 6]: about 1.4%
cd34+ cells, percent of the population of blood cells [2, 6]: 1.5%
cd45+ cells, percent of the population of blood cells [2, 6]: about 0.4%
fold increase of percentage of Sca-1+ cells in blood over control [2, 6]: ~36 fold
fold increase of percentage of cd34+ cells in blood over control [2, 6]: ~10 fold
fold increase of percentage of cd45+ cells in blood over control [2, 6]: ~20 fold

C=CCNC1=C2C[C@@H](C)C[C@H](OC)[C@H](O)[C@@H](C)/C=C(\C)[C@H](OC(N)=O)[C@@H](OC)/C=C\C=C(/C)C(=O)NC(=CC1=O)C2=O [Formula 17-AAG, 17-allylamino-17-demethoxygeldanamycin]
level of TNF-α compared to placebo control ([3]; 17-AAG 10 mg/kg i.p., by 24 hours post treatment): declined below levels seen in the placebo control
level of MCP1 compared to placebo control ([3]; 17-AAG 10 mg/kg i.p., over the course of the experiment): not significantly different
level of IL-17 compared to placebo control ([3]; i.p. celastrol 3.0 mg/kg (throughout 72 hours) or 17-AAG 10 mg/kg (up to 48 hours)): consistently high
level of IFN-γ compared to placebo control [3, 7]: remained elevated up to 72 hours
level of IL-1β compared to placebo control [3, 7]: remained elevated up to 72 hours
level of IL-3 compared to placebo control [3, 7]: remained elevated up to 72 hours
level of IL-4 compared to placebo control [3, 7]: remained elevated up to 72 hours
level of IL-5 compared to placebo control [3, 7]: remained elevated up to 72 hours
level of IL-10 compared to placebo control [3, 7]: remained elevated up to 72 hours; also recorded: had risen again by 72 hours
level of IL-12p40 compared to placebo control [3, 7]: elevated again at 24 hours
level of IL-12p70 compared to placebo control [3, 7]: remained elevated up to 72 hours
level of IL-12p80 compared to placebo control [3, 7]: remained elevated up to 72 hours
time by which GM-CSF (elevated pre treatment) declined to placebo control levels [3, 8]: ≤ 6 h
time by which IL-1α returned to levels seen in the placebo control [3, 8]: ≤ 24 h
time by which IL-2 returned to levels seen in the placebo control [3, 8]: ≤ 6 h
time by which IL-6 returned to levels seen in the placebo control [3, 8]: ≤ 24 h
time by which IL-9 (elevated pre treatment) declined to placebo control levels [3, 8]: ≤ 6 h
time by which IL-13 returned to levels seen in the placebo control [3, 8]: ≤ 6 h
time by which KC returned to levels seen in the placebo control [3, 8]: ≤ 24 h
time by which MIP1β returned or declined to placebo control levels [3, 8]: ≤ 6 h
time by which RANTES returned to levels seen in the placebo control [3, 8]: up to 72 hours
time by which VEGF returned to levels seen in the placebo control [3, 8]: ≤ 6 h
time of peak level of IFN-γ post treatment [3, 9]: around 24 hours
time of peak level of IL-1α post treatment [3, 9]: around 6 hours
time of peak level of IL-1β post treatment [3, 9]: around 24 hours
time of peak level of IL-2 post treatment [3, 9]: around 3 hours
time of peak level of IL-3 post treatment [3, 9]: around 24 hours
time of peak level of IL-4 post treatment [3, 9]: around 24 hours
time of peak level of IL-5 post treatment [3, 9]: around 24 hours
time of peak level of IL-6 post treatment [3, 9]: around 6 hours
time of peak level of IL-10 post treatment [3, 9]: around 24 hours
time of peak level of IL-12p70 post treatment [3, 9]: around 24 hours
time of peak level of IL-12p80 post treatment [3, 9]: around 24 hours
time of peak level of IL-13 post treatment [3, 9]: around 3 hours
time of peak level of KC post treatment [3, 9]: around 6 hours
time of peak level of MCP1 post treatment [3, 9]: around 24 hours
time of peak level of MIP1β post treatment [3, 9]: around 3 hours
time of peak level of RANTES post treatment [3, 9]: around 48 hours
time of peak level of TNF-α post treatment [3, 9]: around 3 hours
time of peak level of VEGF post treatment [3, 9]: around 3 hours

C=C1C(=O)[C@]23[C@H](O)[C@H]1CC[C@H]2[C@@]12CO[C@]3(O)[C@@H](O)[C@@H]1C(C)(C)CC[C@@H]2O [oridonin]
CD34 cells, percent of the population of bone marrow cells [1, 10]: greater than 0.5%
Sca-1+ cells, percent of the population of bone marrow cells [1, 10]: about 0.5%
fold increase of percentage of Sca-1+ cells in bone marrow over control [1, 10]: ≥ 10 fold
fold increase of percentage of cd34+ cells in bone marrow over control [1, 10]: ≥ 10 fold
Sca-1+ cells, percent of the population of blood cells [2, 11]: 0.14%
cd34+ cells, percent of the population of blood cells [2, 11]: approximately 0.18%
fold increase of percentage of Sca-1+ cells in blood over control [2, 11]: ~1.4 fold
fold increase of percentage of cd34+ cells in blood over control [2, 11]: ~1.8 fold

CCCC(CCC)C(=O)O [valproic acid]
CD34 cells, percent of the population of bone marrow cells [1, 12]: about 0.2%
Sca-1+ cells, percent of the population of bone marrow cells [1, 12]: about 0.18%
cd45+ cells, percent of the population of bone marrow cells [1, 12]: about 0.08%
fold increase of percentage of Sca-1+ cells in bone marrow over control [1, 12]: ~6 fold
fold increase of percentage of cd34+ cells in bone marrow over control [1, 12]: ≥ 4 fold
fold increase of percentage of cd45+ cells in bone marrow over control [1, 12]: ≥ 3 fold
Sca-1+ cells, percent of the population of blood cells [2, 13]: less than 0.4%
cd34+ cells, percent of the population of blood cells [2, 13]: greater than 0.4%
cd45+ cells, percent of the population of blood cells [2, 13]: less than 0.2%
fold increase of percentage of cd34+ cells in blood over control [2, 13]: ~2.6 fold
fold increase of percentage of Sca-1+ cells in blood over control [4]: ~3 fold
fold increase of percentage of cd45+ cells in blood over control [4]: ~4 fold
toxicity in mice (mice): not toxic

CC(C)[C@]12O[C@H]1[C@@H]1O[C@]13[C@]1(O[C@H]1C[C@H]1C4=C(CC[C@@]13C)C(=O)OC4)[C@@H]2O [triptolide]
cd34+ cells, percent of the population of bone marrow cells [1, 14]: ~0.8%
fold increase in the proportion of Sca-1 stem cells in bone marrow vs untreated mice [1, 14]: approximately 15 fold
fold increase of percentage of cd34+ cells in bone marrow over control [1, 14]: ~16 fold
fold increase of percentage of cd45+ cells in bone marrow vs untreated control [1, 14]: about 3 fold
sca-1+ stem cells, percent of bone marrow cell population [1, 14]: 0.75%
cd34+ cells, percent of bone marrow cells [1, 15]: 0.3%
cd45+ cells, percent in bone marrow [1, 15]: about 0.07%
fold increase of percentage of cd34+ cells in bone marrow compared to control mice [1, 15]: 6 fold
sca-1+ cells, percent of bone marrow cell population [1, 15]: 0.25%
CD34 cells, percent in bone marrow [1, 16]: 0.65%
Sca-1+ cells, percent in bone marrow [1, 16]: about 0.5%
cd45+ cells, percent in bone marrow [1, 16]: ~0.12%
CD34-expressing cells, percent of the population of blood cells [2, 14]: ~1%
Sca-1+ cells, percent of the population of blood cells [2, 14]: ~1%
Sca-1+ cells, percent of cells in blood [2, 15]: ~2%
cd34+ cells, percent of cells in blood [2, 15]: ~2%
cd45+ cells, percent of the cells in blood [2, 15]: about 0.2%
Sca-1+ cells, percent of cells in blood [2, 16]: ~3%
cd34+ cells, percent of cells in blood [2, 16]: about 3%

Cc1c(O)c(O)cc2c1CC=C1[C@@]2(C)CC[C@@]2(C)[C@@H]3C[C@](C)(C(=O)O)CC[C@]3(C)CC[C@]12C [dihydrocelastrol]
Sca-1+ cells, percent of the population of bone marrow cells [1, 5]: 0.14%
cd34+ cells, percent of the population of bone marrow cells [1, 5]: 0.15%
cd45+ cells, percent of the population of bone marrow cells [1, 5]: 0.04%
change of percentage of cd45+ cells in bone marrow compared to untreated control [1, 5]: slight increase
fold increase of percentage of Sca-1+ cells in bone marrow over control [1, 5]: ~3 fold
fold increase of percentage of cd34+ cells in bone marrow over control [1, 5]: ~3 fold
Sca-1+ cells, percent of the population of blood cells [2, 6]: 0.4%
cd34+ cells, percent of the population of blood cells [2, 6]: approximately 0.6%
cd45+ cells, percent of the population of blood cells [2, 6]: about 0.19%
fold increase of percentage of Sca-1+ cells in blood over control [2, 6]: ~10 fold
fold increase of percentage of cd34+ cells in blood over control [2, 6]: ~4 fold
fold increase of percentage of cd45+ cells in blood over control [2, 6]: ~10 fold

From patent publication US20110218143A1, “COMPOSITIONS AND METHODS FOR TISSUE REPAIR” (UNIVERSITY OF FLORIDA RESEARCH FOUNDATION, priority 2007, published 2011)
